# Measurements as given in the supplement of paper PMC11208160.
# Assay: recombinant UMI read abundance after kanamycin selection (control-corrected) (log10(CPM+1)); higher = more efficient recombination; extreme values may be limits of the assay; sequences stand for … in AGTGCAGAGAAAATCGGCCAGTTTTCTCTGCCTGCAGTCCGCATGCCGTGGGACCCCTTGGGTTCTAACCTGTTGCCTAGATTTATGCAGCGGACTGCCTTTCTCCCAAAGTGATAAACCGG…AGGTTGGTTTCACT; site = the 11-nt donor
# How it was run: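 Values, expressed as log10(CPM+1), derive from recombinant UMI counts converted to CPM, averaged across replicates and scaled by control-derived factors. Plating was with IPTG (0.07 mM) plus kanamycin or unselected, two replicates each. The screen pooled donor and donor-binding-loop pairs for the IS621 bridge recombinase in Escherichia coli.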
# 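Note: IS621 bridge recombinase in Escherichia coli cells against a fixed T5 target plasmid.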
row,Sequence,recombinant UMI read abundance (log10)
1,GGGAAGACATGGACCGGTTTTCCCGGTAATCCGTATTTGGC (site GGGAAGACTGC),1.57
2,GGGACCTCATGGACCGGTTTTCCCGGTAATCCGTATTTGGT (site GGGACCTCTAC),2
3,GGGACCTCATGGACCGGTTTTCCCGGTAATCCGTATTTGTA (site GGGACCTCTTA),2.24
4,GGGACGACATGGACCGGTTTTCCCGGTAATCCGTATTTGCA (site AGGAAGACTTG),0
5,GGGACGACATGGACCGGTTTTCCCGGTAATCCGTATTTGCA (site GGGACGACTTG),2.07
6,GGGAGTCCATGGACCGGTTTTCCCGGTAATCCGTATTTGTT (site CGGAATCCTAA),0.00442
7,GGGAGTCCATGGACCGGTTTTCCCGGTAATCCGTATTTGTT (site GGGAGTCCTAA),0.709
8,GGGAGTTCATGGACCGGTTTTCCCGGTAATCCGTATTTGCA (site GGGAGTTCTTG),1.13
9,GGGATCTCATGGACCGGTTTTCCCGGTAATCCGTATTTGGG (site GGGATCTCTCC),1.71
10,GGGATTTCATGGACCGGTTTTCCCGGTAATCCGTATTTGGG (site GGGATTTCTCC),0.679
11,GGGCACCCATGGACCGGTTTTCCCGGTAATCCGTATTTGTT (site GGACACCCTAA),0.0162
12,GGGCACCCATGGACCGGTTTTCCCGGTAATCCGTATTTGTT (site GGCCACCCTAA),0.161
13,GGGCACCCATGGACCGGTTTTCCCGGTAATCCGTATTTGTT (site GGGCACCCTAA),0.325
14,GGGCACCCATGGACCGGTTTTCCCGGTAATCCGTATTTGTT (site GGTCACCCTAA),0.268
15,GGGCCGGCATGGACCGGTTTTCCCGGTAATCCGTATTTGGC (site AGGCCGGCTGC),0
16,GGGCCGGCATGGACCGGTTTTCCCGGTAATCCGTATTTGGC (site CGGCCGGCTGC),0
17,GGGCCGGCATGGACCGGTTTTCCCGGTAATCCGTATTTGGC (site GGGCCGGCTGC),0
18,GGGCCGGCATGGACCGGTTTTCCCGGTAATCCGTATTTGGC (site TGGCCGGCTGC),0
19,GGGCCTACATGGACCGGTTTTCCCGGTAATCCGTATTTGGG (site GGGCCTACTCC),0

row,Sequence,recombinant UMI read abundance (log10)
1,GGGCTCACATGGACCGGTTTTCCCGGTAATCCGTATTTGAT (site GAGCTCACTAT),0.00773
2,GGGCTCACATGGACCGGTTTTCCCGGTAATCCGTATTTGAT (site GCGCTCACTAT),0.802
3,GGGCTCACATGGACCGGTTTTCCCGGTAATCCGTATTTGAT (site GGGCTCACTAT),1.73
4,GGGCTCACATGGACCGGTTTTCCCGGTAATCCGTATTTGAT (site GTGCTCACTAT),1.11
5,GGGGAACCATGGACCGGTTTTCCCGGTAATCCGTATTTGAT (site AGGGAACCTAT),0
6,GGGGAACCATGGACCGGTTTTCCCGGTAATCCGTATTTGAT (site CGGGAACCTAT),0
7,GGGGAACCATGGACCGGTTTTCCCGGTAATCCGTATTTGAT (site GGGGAACCTAT),0
8,GGGGAACCATGGACCGGTTTTCCCGGTAATCCGTATTTGAT (site TGGGAACCTAT),0
9,GGGGACTCATGGACCGGTTTTCCCGGTAATCCGTATTTGCA (site GGGGACTCTTG),1.89
10,GGGGAGACATGGACCGGTTTTCCCGGTAATCCGTATTTGCC (site GGGGAGACTGG),2.07
11,GGGGATGCATGGACCGGTTTTCCCGGTAATCCGTATTTGGC (site GGGGATGCTGC),0
12,GGGGCACCATGGACCGGTTTTCCCGGTAATCCGTATTTGTA (site GGGGCACCTTA),0
13,GGGGCACCATGGACCGGTTTTCCCGGTAATCCGTATTTGTA (site GGGGCACCTTC),0.0203
14,GGGGCACCATGGACCGGTTTTCCCGGTAATCCGTATTTGTA (site GGGGCACCTTG),0.00274
15,GGGGCACCATGGACCGGTTTTCCCGGTAATCCGTATTTGTA (site GGGGCACCTTT),0.0754
16,GGGGCAGCATGGACCGGTTTTCCCGGTAATCCGTATTTGCA (site GGGGCAACTTG),1.47
17,GGGGCAGCATGGACCGGTTTTCCCGGTAATCCGTATTTGCA (site GGGGCACCTTG),0
18,GGGGCAGCATGGACCGGTTTTCCCGGTAATCCGTATTTGCA (site GGGGCAGCTTG),2.13
19,GGGGCAGCATGGACCGGTTTTCCCGGTAATCCGTATTTGCA (site GGGGCATCTTG),0.336

row,Sequence,recombinant UMI read abundance (log10)
1,GGGGCCCCATGGACCGGTTTTCCCGGTAATCCGTATTTGGC (site GGGGCCCCTGC),0
2,GGGGCGCCATGGACCGGTTTTCCCGGTAATCCGTATTTGCA (site GGGGCACCTTG),0.0167
3,GGGGCGCCATGGACCGGTTTTCCCGGTAATCCGTATTTGCA (site GGGGCCCCTTG),0
4,GGGGCGCCATGGACCGGTTTTCCCGGTAATCCGTATTTGCA (site GGGGCGCCTTG),0.0101
5,GGGGCGCCATGGACCGGTTTTCCCGGTAATCCGTATTTGCA (site GGGGCTCCTTG),0
6,GGGGCTCCATGGACCGGTTTTCCCGGTAATCCGTATTTGCA (site GGGGCACCTTG),0.0623
7,GGGGCTCCATGGACCGGTTTTCCCGGTAATCCGTATTTGCA (site GGGGCCCCTTG),0.407
8,GGGGCTCCATGGACCGGTTTTCCCGGTAATCCGTATTTGCA (site GGGGCGCCTTG),0.0195
9,GGGGCTCCATGGACCGGTTTTCCCGGTAATCCGTATTTGCA (site GGGGCTCCTTG),1.13
10,GGGGTAGCATGGACCGGTTTTCCCGGTAATCCGTATTTGTC (site GGGGTAGCTGA),2.71
11,GGGTAATCATGGACCGGTTTTCCCGGTAATCCGTATTTGAT (site GGGTAATCTAT),3.04
12,GGGTACGCATGGACCGGTTTTCCCGGTAATCCGTATTTGTA (site GGGTACGCTTA),2.47
13,GGGTAGACATGGACCGGTTTTCCCGGTAATCCGTATTTGCC (site GGATAGACTGG),2.81
14,GGGTAGACATGGACCGGTTTTCCCGGTAATCCGTATTTGCC (site GGCTAGACTGG),0
15,GGGTAGACATGGACCGGTTTTCCCGGTAATCCGTATTTGCC (site GGGTAGACTGG),2.39
16,GGGTAGACATGGACCGGTTTTCCCGGTAATCCGTATTTGCC (site GGTTAGACTGG),0.949
17,GGTAATTCATGGACCGGTTTTCCCGGTAATCCGTATTTGGT (site GGTAATTCTAC),1.18
18,GGTACATCATGGACCGGTTTTCCCGGTAATCCGTATTTGTT (site GGTACATCTAA),0.0632
19,GGTACATCATGGACCGGTTTTCCCGGTAATCCGTATTTGTT (site GGTACCTCTAA),0.00401
